Laboratory results published in ChEMBL document CHEMBL5143583, “Discovery of pyrroledione analogs as potent transient receptor potential canonical channel 5 inhibitors” (Bioorg Med Chem Lett, 2022).
The source made the active and inactive calls. The rule behind the calls is not given here.

How the values were obtained:
[1] = target: T1, Short transient receptor potential channel 5 (Homo sapiens, UniProt Q9UL62); experiment: Inhibition of TRPC5 channel (unknown origin) expressed in HEK293 cells assessed as inhibition of EA-evoked Ca2+ entry by measuring reduction in intracellular Ca2+ level by Fluo-4 dye based FLIPR assay; type: cell-based
T1 sequence (Q9UL62 whole entry): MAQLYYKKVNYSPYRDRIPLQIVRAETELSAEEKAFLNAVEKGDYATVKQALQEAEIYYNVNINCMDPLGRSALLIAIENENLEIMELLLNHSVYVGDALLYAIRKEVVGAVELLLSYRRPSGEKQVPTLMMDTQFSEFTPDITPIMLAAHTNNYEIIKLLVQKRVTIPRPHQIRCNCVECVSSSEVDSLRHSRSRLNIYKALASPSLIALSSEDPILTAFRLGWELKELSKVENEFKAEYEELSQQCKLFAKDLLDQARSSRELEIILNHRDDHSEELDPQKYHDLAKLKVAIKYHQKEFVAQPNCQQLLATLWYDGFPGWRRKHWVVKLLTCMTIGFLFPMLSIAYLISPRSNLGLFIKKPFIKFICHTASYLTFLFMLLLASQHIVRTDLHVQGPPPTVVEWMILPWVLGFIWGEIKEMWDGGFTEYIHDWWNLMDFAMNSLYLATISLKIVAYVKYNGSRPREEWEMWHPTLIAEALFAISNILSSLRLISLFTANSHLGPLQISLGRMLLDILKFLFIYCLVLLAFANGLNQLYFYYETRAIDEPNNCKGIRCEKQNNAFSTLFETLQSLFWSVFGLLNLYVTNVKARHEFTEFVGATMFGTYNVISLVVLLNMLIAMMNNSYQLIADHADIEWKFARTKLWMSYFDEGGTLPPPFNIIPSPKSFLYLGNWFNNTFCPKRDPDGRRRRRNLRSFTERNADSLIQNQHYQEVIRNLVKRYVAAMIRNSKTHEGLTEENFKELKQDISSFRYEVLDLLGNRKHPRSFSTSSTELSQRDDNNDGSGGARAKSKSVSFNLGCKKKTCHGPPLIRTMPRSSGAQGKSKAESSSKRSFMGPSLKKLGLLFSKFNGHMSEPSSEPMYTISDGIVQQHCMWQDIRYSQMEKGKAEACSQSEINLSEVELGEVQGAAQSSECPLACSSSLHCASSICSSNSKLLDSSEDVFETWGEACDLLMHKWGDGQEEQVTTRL

[2] = target: T1, Short transient receptor potential channel 5; experiment: Inhibition of human TRPC5 channel expressed in HEK293 cells assessed as inhibition of EA-evoked channel current measured at +80 mV by whole-cell voltage clamp assay; type: cell-based
[3] = target: T2, Short transient receptor potential channel 3 (Homo sapiens) (UniProt Q13507); experiment: Inhibition of human TRPC3 channel expressed in HEK293 cells assessed as inhibition of OAG-evoked Ca2+ entry by measuring reduction in intracellular Ca2+ level by Fluo-4 dye based FLIPR assay; type: cell-based
T2 sequence (whole entry): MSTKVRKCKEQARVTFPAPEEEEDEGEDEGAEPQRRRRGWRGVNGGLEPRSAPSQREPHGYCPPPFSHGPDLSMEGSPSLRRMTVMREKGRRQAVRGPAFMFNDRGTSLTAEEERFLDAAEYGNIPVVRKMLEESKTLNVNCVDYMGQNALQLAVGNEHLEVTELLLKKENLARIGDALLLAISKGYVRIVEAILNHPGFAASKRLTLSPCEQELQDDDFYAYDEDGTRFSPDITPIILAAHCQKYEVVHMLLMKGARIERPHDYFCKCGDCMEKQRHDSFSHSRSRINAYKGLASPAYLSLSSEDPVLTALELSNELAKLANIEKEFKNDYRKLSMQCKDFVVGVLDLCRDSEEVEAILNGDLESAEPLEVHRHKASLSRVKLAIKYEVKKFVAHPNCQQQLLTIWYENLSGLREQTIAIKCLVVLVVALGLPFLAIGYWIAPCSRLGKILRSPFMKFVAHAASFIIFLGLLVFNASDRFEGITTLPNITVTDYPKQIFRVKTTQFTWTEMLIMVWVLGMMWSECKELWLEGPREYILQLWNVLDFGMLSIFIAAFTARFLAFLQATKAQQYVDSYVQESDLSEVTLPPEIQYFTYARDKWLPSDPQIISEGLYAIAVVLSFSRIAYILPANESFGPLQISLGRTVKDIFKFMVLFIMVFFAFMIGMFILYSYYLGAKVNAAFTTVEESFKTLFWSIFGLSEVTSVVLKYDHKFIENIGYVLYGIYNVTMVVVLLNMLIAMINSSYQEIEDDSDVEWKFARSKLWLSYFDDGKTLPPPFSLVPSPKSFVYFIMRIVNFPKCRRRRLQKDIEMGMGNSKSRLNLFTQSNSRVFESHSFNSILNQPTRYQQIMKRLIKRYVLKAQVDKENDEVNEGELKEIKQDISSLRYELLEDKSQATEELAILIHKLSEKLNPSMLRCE

[4] = target: T3, Short transient receptor potential channel 4 (Homo sapiens, UniProt Q9UBN4); experiment: (§1) Inhibition of TRPC4 channel (unknown origin) expressed in HEK293 cells assessed as inhibition of EA-evoked Ca2+ entry by measuring reduction in intracellular Ca2+ level by Fluo-4 dye based FLIPR assay; type: cell-based
T3 sequence (Q9UBN4 whole entry): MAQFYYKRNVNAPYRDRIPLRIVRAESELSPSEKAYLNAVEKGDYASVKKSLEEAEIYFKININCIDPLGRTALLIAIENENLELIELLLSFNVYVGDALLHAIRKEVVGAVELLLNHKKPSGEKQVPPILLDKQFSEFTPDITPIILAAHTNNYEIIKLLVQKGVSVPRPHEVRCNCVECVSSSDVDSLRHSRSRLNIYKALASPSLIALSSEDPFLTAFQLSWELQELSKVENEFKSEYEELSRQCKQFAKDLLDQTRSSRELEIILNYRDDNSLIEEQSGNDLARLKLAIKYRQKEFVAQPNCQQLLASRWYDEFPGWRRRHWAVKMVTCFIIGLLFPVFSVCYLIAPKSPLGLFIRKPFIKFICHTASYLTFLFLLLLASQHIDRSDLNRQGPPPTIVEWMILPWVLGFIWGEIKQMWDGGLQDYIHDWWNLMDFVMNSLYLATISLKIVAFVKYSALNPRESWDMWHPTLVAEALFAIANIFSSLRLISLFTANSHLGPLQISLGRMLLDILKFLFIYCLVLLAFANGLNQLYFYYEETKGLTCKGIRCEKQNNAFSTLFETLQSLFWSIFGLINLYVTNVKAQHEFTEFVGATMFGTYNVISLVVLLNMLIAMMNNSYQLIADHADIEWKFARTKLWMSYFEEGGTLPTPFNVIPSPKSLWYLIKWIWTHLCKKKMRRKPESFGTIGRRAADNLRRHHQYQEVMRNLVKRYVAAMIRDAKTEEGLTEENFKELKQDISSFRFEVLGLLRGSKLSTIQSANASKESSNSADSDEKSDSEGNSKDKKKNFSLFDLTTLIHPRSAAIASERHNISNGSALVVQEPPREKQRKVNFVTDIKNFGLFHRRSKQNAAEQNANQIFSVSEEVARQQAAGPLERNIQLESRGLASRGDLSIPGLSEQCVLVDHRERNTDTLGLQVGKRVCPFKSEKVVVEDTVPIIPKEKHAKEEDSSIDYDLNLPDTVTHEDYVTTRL

[5] = target: T4, Short transient receptor potential channel 4 (Homo sapiens) (UniProt Q9UBN4); experiment: as §1; type: cell-based; settings: DDE = dose-dependent effect
T4 sequence (whole entry): T3 sequence (Q9UBN4 whole entry)

Hepatocyte = experiment: Cytotoxicity against primary mouse hepatocytes assessed as reduction in cell viability at 1 to 10 uM by MTT assay; type: toxicity, cell-based; settings: dose 1-10 µM
MPC-5 = experiment: Reno-protectant activity against protamine sulfate-induced podocytes injury in mouse MPC5 cells assessed as reduction in PS-induced podocytes rearrangement and rupture of stress fibers at 0.1 to 3 uM pretreated for 30 mins followed by stimulation with PS for 100 mins; type: functional, cell-based; settings: dose 0.1-3 µM, time 130.0 min, DDE = dose-dependent effect
[6] = Cytotoxicity against mouse MPC5 cells assessed as reduction in cell viability at 1 to 10 uM by MTT assay; type: toxicity, cell-based; settings: mpc-5, 10 µM, dose 1-10 µM

Row | IC50 [1] | SMILES | also measured
1 | 280 nM | O=C1NC(=O)C(N2CCc3c(ncnc3Oc3ccc(F)cc3Cl)C2)=C1Cl | 
2 | 860 nM | O=C1NC(=O)C(N2CCc3ncn(Cc4ccccc4C(F)(F)F)c3C2)=C1Cl | 
3 | 60 nM | O=C1NC(=O)C(N2CCc3c(ncnc3Oc3ccc(F)cc3C(F)(F)F)C2)=C1Cl | IC50 [2]: 14.1 nM; inhibition [3]: Active; IC50 [4]: 65 nM; inhibition [5]: Dde; Activity (Hepatocyte): Non-Toxic; Activity (MPC-5): Dde; Activity [6]: Non-Toxic
4 | 125 nM | Cc1nc2c(c(Oc3ccc(F)cc3C(F)(F)F)n1)CCN(C1=C(Cl)C(=O)NC1=O)C2 | 
5 | > 10000 nM | O=C(CC1CN(c2cn[nH]c(=O)c2Cl)C1)NCc1ccccc1C(F)(F)F | 
6 | 955 nM | O=C1NC(=O)C(N2CCc3c(cnn3Cc3ccccc3C(F)(F)F)C2)=C1Cl | 
7 | > 10000 nM | CN(CC(=O)NCc1ccccc1C(F)(F)F)c1cn[nH]c(=O)c1Cl | 
8 | > 10000 nM | O=C1NC(=O)C(N2CCc3c(ncnc3Oc3cccc(C(F)(F)F)c3)C2)=C1Cl | 
9 | 1070 nM | CCc1ccccc1Oc1ncnc2c1CCN(C1=C(Cl)C(=O)NC1=O)C2 | 
10 | > 10000 nM | O=C1NC(=O)C(N2CCc3c(ncnc3Oc3ccc(F)cc3C3CCCC3)C2)=C1Cl | 
11 | 798 nM | CCc1nc2c(c(Oc3ccc(F)cc3C(F)(F)F)n1)CCN(C1=C(Cl)C(=O)NC1=O)C2 | 
12 | 211 nM | O=C1CN(c2cn[nH]c(=O)c2Cl)CCN1Cc1ccccc1C(F)(F)F | IC50 [2]: 50.1 nM; Activity (Hepatocyte): Non-Toxic; Activity (MPC-5): Dde; Activity [6]: Non-Toxic
13 | 629 nM | C#Cc1cc(F)ccc1Oc1ncnc2c1CCN(C1=C(Cl)C(=O)NC1=O)C2 | 
14 | > 10000 nM | O=C1CN(c2cc(=O)[nH]cn2)CCN1Cc1ccccc1C(F)(F)F | 
15 | > 10000 nM | O=C(NCc1ccccc1C(F)(F)F)C1CN(c2cn[nH]c(=O)c2Cl)C1 | 
16 | 664 nM | N#Cc1cc(F)ccc1Oc1ncnc2c1CCN(C1=C(Cl)C(=O)NC1=O)C2 | 
17 | > 10000 nM | O=C1CN(c2cn[nH]c(=O)c2Cl)CN1Cc1ccccc1C(F)(F)F | 

Row | IC50 [1] | SMILES | also measured
18 | > 10000 nM | Cn1c(N2CCN(Cc3ccccc3C(F)(F)F)C(=O)C2)cc(=O)[nH]c1=O | 
19 | > 10000 nM | O=C1NC(=O)C(N2CCc3c(ncnc3Oc3ccc(F)cc3C3CCC3)C2)=C1Cl | 
20 | 452 nM | O=C1NC(=O)C(N2CCc3c(ncnc3Oc3ccccc3C(F)(F)F)C2)=C1Cl | 
21 | > 10000 nM | Cn1ncc(N2CCN(Cc3ccccc3C(F)(F)F)C(=O)C2)c(Cl)c1=O | 
22 | > 10000 nM | Cc1cc(F)ccc1Oc1ncnc2c1CCN(C1=C(Cl)C(=O)NC1=O)C2 | 
23 | 10400 nM | O=C1NC(=O)C(N2CCN(Cc3ccccc3C(F)(F)F)C(=O)C2)=C1Cl | 
24 | > 10000 nM | O=C1NC(=O)C(N2CCc3c(ncnc3Oc3ccc(C(F)(F)F)cc3)C2)=C1Cl | 
25 | 2080 nM | O=C1NC(=O)C(N2CCc3c(nc(C4CC4)nc3Oc3ccc(F)cc3C(F)(F)F)C2)=C1Cl | 
26 | 2540 nM | O=C1NC(=O)C(N2CCc3c(ncnc3Oc3ccc(F)cc3CC(F)(F)F)C2)=C1Cl | 
27 | 111 nM | O=C1NC(=O)C(N2CCc3c(ncnc3Oc3ccc(F)cc3C3CC3)C2)=C1Cl | 
28 | > 10000 nM | O=C1CN(c2cn[nH]c(=O)c2)CCN1Cc1ccccc1C(F)(F)F | 
29 | > 10000 nM | CN(Cc1ccccc1C(F)(F)F)C(=O)C1CN(c2cn[nH]c(=O)c2Cl)C1 | 
30 | > 10000 nM | O=C1CN(c2cc(=O)[nH]c(=O)[nH]2)CCN1Cc1ccccc1C(F)(F)F | 
31 | 314 nM | O=C1NC(=O)C(N2CCc3c(ncnc3Oc3ccc(Cl)cc3C(F)(F)F)C2)=C1Cl | 
32 | > 10000 nM | Cn1c(N2CCN(Cc3ccccc3C(F)(F)F)C(=O)C2)cc(=O)n(C)c1=O | 
33 | 776 nM | O=C1NC(=O)C(N2CCc3c(ncnc3Oc3c(F)cccc3C(F)(F)F)C2)=C1Cl | 
34 | 654 nM | O=C1NC(=O)C(N2CCc3c(ncnc3Oc3ccccc3Cl)C2)=C1Cl | 
